{"source": "patent US8921321B2", "about": "“Therapeutic strategies for prevention and treatment of alzheimer's disease” (Isis Innovation Ltd., priority 2001, dated 2014)", "key": {"[1]": {"test_system": "SH-SY5Y human neuroblastoma cells", "test": "Apoptosis by flow cytometry (sub-G1 DNA content)", "assay_type": "cell-based", "conditions": "drug alone: rapamycin 100 ng/ml, doxorubicin 1 μM, dexrazoxane 200 μM, FIG. 2a", "procedure": "(§1) SH-SY5Y cells were treated with three candidate agents: rapamycin (Rapa) at 100 ng/ml, doxorubicin (Doxo) at 1 μM and Dexrazoxane (DexRaz) at 200 μM and then tested one day (d1) and two days (d2) after treatment for the following 7 parameters, which are indicative of cell cycle defects and “AD-type” pathology:\n(§2) In order to evaluate the effect of drug pre-treatment is protecting against the effects of oxidative stress cells were subjected to oxidative stress (by treatment with 120 μM H2O2) in the absence of drug treatment and after treatment with rapamycin or dexrazoxane, and then tested for the same parameters. Results are shown in FIGS. 1-7, panel b (FIG. 1b, FIG. 2b, FIG. 3b, FIG. 4b, FIG. 5b, FIG. 6b, FIG. 7b).\n(§3) Finally, cells were treated with doxorubicin after treatment with rapamycin or dexrazoxane and then tested for the same parameters, to evaluate the effects of combined treatment. Results are shown in FIGS. 1-7, panel c (FIG. 1c, FIG. 2c, FIG. 3c, FIG. 4c, FIG. 5c, FIG. 6c, FIG. 7c).\n(§4) SH-SY5Y human neuroblastoma cells were cultured in Dulbecco's modified Eagle's medium (DMEM)/F12 supplemented with 10% fetal calf serum (FCS, PAA Laboratories, Austria), 2 mM L-glutamine, 100 IU/ml penicillin and 100 μg/ml streptomycin (Gibco) in a humidified incubator at 37° C. and 5% CO2.\n(§5) After 24 h incubation the culture medium was replaced by DMEM/F12 with 10% FCS containing various concentrations of drug. The cells were incubated for another 24 or 48 hours.\n(§6) The cell cultures were repeated in identical conditions in order to analyze cell cycle kinetics by flow cytometry and to study protein expression.\n(§7) The cultures prepared for flow cytometry were harvested after a short incubation with Trypsin EDTA (Sigma) in PBS. Cells were fixed in 70% ice-cold alcohol. Prior to staining with propidium iodide (PI) the samples were washed twice in PBS containing Triton-X at 0.1%. On flow cytometry the ratio of G1 and G2 cells was measured. Cells with sub-G1 DNA content were regarded as the apoptotic fraction."}, "[2]": {"test_system": "SH-SY5Y human neuroblastoma cells", "test": "Relative lengthening of the G1 phase of the cell cycle by flow cytometry", "assay_type": "cell-based", "conditions": "drug alone, FIG. 3a", "procedure": "as §1, §2\nFinally, cells were treated with doxorubicin after treatment with rapamycin or dexrazoxane and then tested for the same parameters, to evaluate the effects of combined treatment. Results are shown in FIGS. 1-7, panel c (FIG. 1c, FIG. 2c, FIG. 3c, FIG. 4c, FIG. 5c, FIG. 6c, FIG. 7c). […]\nThe cultures prepared for flow cytometry were harvested after a short incubation with Trypsin EDTA (Sigma) in PBS. […] On flow cytometry the ratio of G1 and G2 cells was measured. […]"}, "[3]": {"test_system": "AD-type paired helical filament (PHF) tau protein", "test": "ELISA of AD-type PHF tau (Tau2) in SH-SY5Y cell lysates", "assay_type": "cell-based, human", "conditions": "for Expression of AD-type PHF tau: drug alone, FIG. 7a", "procedure": "as §1, §2, §3, §4, §5, §6\n(§8) The cultures prepared for protein expression assays were harvested after a short wash with cold PBS by scraping. The collected cells were lysed in 150 μl of lysis buffer containing 50 mM Tris-HCl (pH 7.4), 100 mM NaCl, 1 mM EDTA, 0.5% (v/v) Nonidet P-40, 50 mM NaF, 0.2 mM Na3VO4, 20 μg/ml phenylmethylsulfonyl fluoride, and 5 μg/ml leupeptin, and incubated on ice for 30 min. The cell lysate was centrifuged at 14,000 g for 20 min at 4° C. to remove insoluble pellets. Protein concentration was determined by the Bradford assay. ELISA assays were performed using a panel of antibodies. Secondary antibodies (anti rabbit or anti mouse as appropriate) conjugated to horseradish peroxidase were used."}, "[4]": {"test_system": "amyloid precursor protein (APP)", "test": "ELISA of APP expression in SH-SY5Y cell lysates", "assay_type": "cell-based, human", "conditions": "for Expression of APP: drug alone, FIG. 5a", "procedure": "as §1, §2, §3, §4, §5, §6, §8"}, "[5]": {"test_system": "AD-type hyperphosphorylated tau protein", "test": "ELISA of AD-type hyperphosphorylated tau (AT8) in SH-SY5Y cell lysates", "assay_type": "cell-based, human", "conditions": "for Expression of AD-type hyperphosphorylated tau: drug alone, FIG. 6a", "procedure": "as §1, §2, §3, §4, §5, §6, §8"}, "[6]": {"test_system": "AD-related proteins", "test": "ELISA of AD-related proteins overall (APP, phospho tau, PHF tau) in SH-SY5Y cell lysates", "assay_type": "cell-based, human", "procedure": "as §1, §2, §3, §4, §5, §6\nThe cultures prepared for protein expression assays were harvested after a short wash with cold PBS by scraping. The collected cells were lysed in 150 μl of lysis buffer containing 50 mM Tris-HCl (pH 7.4), 100 mM NaCl, 1 mM EDTA, 0.5% (v/v) Nonidet P-40, 50 mM NaF, 0.2 mM Na3VO4, 20 μg/ml phenylmethylsulfonyl fluoride, and 5 μg/ml leupeptin, and incubated on ice for 30 min. […] Protein concentration was determined by the Bradford assay. […]"}, "[7]": {"test_system": "SH-SY5Y human neuroblastoma cells", "test": "MTT proliferation and cell survival assay", "assay_type": "cell-based", "conditions": "drug alone: rapamycin 100 ng/ml, doxorubicin 1 μM, dexrazoxane 200 μM; vs control cultures; FIG. 1a", "procedure": "as §1, §2\nFinally, cells were treated with doxorubicin after treatment with rapamycin or dexrazoxane and then tested for the same parameters, to evaluate the effects of combined treatment. […]\nCell survival and proliferation was assessed by MTT proliferation and cell survival assay, performed according to the manufacturers recommendations (Chemicon International, Ltd., Hampshire, UK) in the final 4 hours of the 24 hours period. The results of the assay were evaluated using an Opsys MR ELISA plate reader (Dynex Technologies, Middlesex, UK) at 570 nm with a reference wavelength of 630 nm."}, "[8]": {"test_system": "SH-SY5Y human neuroblastoma cells", "test": "Relative lengthening of the G2 phase of the cell cycle by flow cytometry", "assay_type": "cell-based", "procedure": "as §1, §2, §3, §4, §5, §6, §7"}, "[9]": {"conditions": "drug alone, after 1 day (day 2), FIG. 4a"}}}
{"smiles": "C[C@@H](CN1CC(=O)NC(=O)C1)N1CC(=O)NC(=O)C1", "note": "[dexrazoxane, Dexrazoxane]", "values": [{"measurement": "Apoptosis", "setting": "[1]", "result": "did not seem to protect cells against apoptotic cell death as efficiently as rapamycin did"}, {"measurement": "Apoptosis", "setting": "[1]; listed as Dexrazoxane", "result": "did not confer protection against cell death on its own"}, {"measurement": "Length of the G1 phase of the cell cycle", "setting": "[2]", "result": "acceleration of the G1 phase of the cell cycle"}, {"measurement": "Expression of AD-type PHF tau", "setting": "[3]; day two", "result": "by day two all three proteins were reduced in the cell lysates"}, {"measurement": "Expression of AD-type PHF tau", "setting": "[3]; first day", "result": "increased the expression of all three AD-related proteins on the first day"}, {"measurement": "PHF tau formation", "setting": "[3]; drug pre-treatment followed by doxorubicin, FIG. 7c", "result": "reduction of the APP and PHF-tau production"}, {"measurement": "Expression of APP", "setting": "[4]; day two", "result": "by day two all three proteins were reduced in the cell lysates"}, {"measurement": "Expression of APP", "setting": "[4]; first day", "result": "increased the expression of all three AD-related proteins on the first day"}, {"measurement": "APP production", "setting": "[4]; drug pre-treatment followed by doxorubicin, FIG. 5c", "result": "reduction of the APP and PHF-tau production"}, {"measurement": "Expression of AD-type hyperphosphorylated tau", "setting": "[5]; day two", "result": "by day two all three proteins were reduced in the cell lysates"}, {"measurement": "Expression of AD-type hyperphosphorylated tau", "setting": "[5]; first day", "result": "increased the expression of all three AD-related proteins on the first day"}, {"measurement": "Phospho-tau production", "setting": "[5]; drug pre-treatment followed by doxorubicin, FIG. 6c", "result": "did not significantly effect the phospho-tau production"}, {"measurement": "AD-related protein expression (overall)", "setting": "[6]; drug alone", "result": "effectively reduced AD-related protein expression after two days in culture"}, {"measurement": "AD-related protein expression (overall)", "setting": "[6]; drug pre-treatment followed by doxorubicin, summary statement", "result": "protective effects against AD-related protein expression became more robust"}, {"measurement": "Cell survival and proliferation (cell numbers)", "setting": "[7]", "result": "reduced cell numbers only after 2 days of treatment"}, {"measurement": "Length of the G2 phase of the cell cycle", "setting": "[8]; [9]", "result": "massive G2 lengthening on day 2"}, {"measurement": "Length of the G2 phase of the cell cycle", "setting": "[8]; drug alone, day one, FIG. 4a", "result": "little change in G2 time on day one"}, {"measurement": "Length of the G2 phase of the cell cycle", "setting": "[8]; drug pre-treatment followed by doxorubicin, FIG. 4c", "result": "increased the G2 lengthening effect of doxorubicin"}]}
{"smiles": "COc1cccc2c1C(=O)c1c(O)c3c(c(O)c1C2=O)C[C@@](O)(C(=O)CO)C[C@@H]3O[C@H]1C[C@H](N)[C@H](O)[C@H](C)O1", "note": "[doxorubicin]", "values": [{"measurement": "Apoptosis", "setting": "[1]", "result": "seems to be protective against apoptotic cell death"}, {"measurement": "Apoptosis", "setting": "[1]; listed as Doxorubicin", "result": "appeared to be protective against apoptosis"}, {"measurement": "Length of the G1 phase of the cell cycle", "setting": "[2]; after 1 day (day 2)", "result": "effect on G1 was reversed after 1 day"}, {"measurement": "Expression of AD-type PHF tau", "setting": "[3]", "result": "elevated expression"}, {"measurement": "Expression of APP", "setting": "[4]", "result": "elevated expression of APP"}, {"measurement": "Expression of AD-type hyperphosphorylated tau", "setting": "[5]", "result": "reduction of phospho-tau"}, {"measurement": "AD-related protein expression (overall)", "setting": "[6]; drug alone", "result": "elevation of AD-related protein expression"}, {"measurement": "Cell survival and proliferation (cell numbers)", "setting": "[7]", "result": "reduced cell numbers"}, {"measurement": "Length of the G2 phase of the cell cycle", "setting": "[8]; drug alone, FIG. 4a", "result": "lengthening of the G2 phase"}, {"measurement": "Length of the G2 phase of the cell cycle", "setting": "[8]; drug alone, FIG. 4a, listed as Doxorubicin", "result": "lengthening of the G2 phase of the cell cycle"}, {"measurement": "Length of the G2 phase of the cell cycle", "setting": "[8]; [9]", "result": "G2 inhibitory effect diminished"}]}
